Results on 1 compound are retold here after patent publication US10561611B2, “Combination liposomal pharmaceutical formulations” (Cureport, Inc., priority 2015, dated 2020).

The nature of this series: in vivo. The conditions noted are these: male, CD-1, mouse, iv. As for the experimental part:
Male CD-1 mice ranging from 20-25 g body weight were split up into groups of three. Each mouse was administered with a single dose of CPT319A or CPT307A at 5 mg/kg DXR by intravenous (IV) injection through the tail vein. A non-liposomal combination of DXR was used as the control. Blood samples were collected at 0.167, 1, 3, 8, 24, and 48 h after the injection. DXR plasma concentration was determined by liquid chromatography-tandem mass spectrometry (LC-MS-MS).

For the compound `COc1cccc2c1C(=O)c1c(O)c3c(c(O)c1C2=O)C[C@@](O)(C(=O)CO)C[C@@H]3O[C@H]1C[C@H](N)[C@H](O)[C@H](C)O1` [Naked DXR, doxorubicin], the AUC (usually the area under the concentration-time curve, a measure of exposure) was determined as 688 ng·h/mL. Moreover, the AUC (5 mg/kg) is 688 ng·h/mL.
